According to patent publication EP1157997A1, “NOVEL DIPEPTIDE COMPOUND AND MEDICINAL USE THEREOF” (JAPAN ENERGY CORPORATION, priority 1999, dated 2001):

Columns and labels:
in vitro = in vitro ADME; conditions: human, plasma
Description: Freezed human plasma (HFFPP100) was used after thawing. Powder of human alpha 1-acid glycoprotein (supplied by SIGMA Co., hereinafter abbreviated to AAG) was dissolved in a phosphate buffer solution (PBS, pH 7.0) to a concentration of 1 mg/ml. Drug solutions were prepared by dissolving the compounds synthesized in Example 1 and Reference Example 1 in dimethylsulfoxide in various concentrations.
The drug solutions (10 µl, each) with different concentrations were added to 990 µl the plasma or AAG solutions prepared above, stirred well and incubated for 18 hours at 37°C to equilibrate binding proteins. All amount of the solution was transferred to Micropartition Devices (Centrifree® , Millipore Co.) and filtered by centrifugation at 1500 x g for 20 minutes (using TOMY CX-210 high-speed cooling centrifugal machine). 200 µl of the filtrate was directly subjected to HPLC (Type: HITACHI D-7000, column: COSMOSIL (4.6* 250 mm, manufactured by Nacalai Tesque Co., Ltd.). The HPLC analysis was carried out by using a 59:41 (v/v) water-acetonitrile mixture containing 0.1% trifluoroacetic acid (TFA) as a mobile phase and measuring absorbance at 210 nm. The quantitative determination of unbound drug concentration was carried out based on the absolute calibration curve method using a calibration line obtained from the analysis of a standard sample which contains the drug at a known concentration. […]

[1] = system: HIV virus (HIV-1 IIIB strain); experiment: Anti-HIV activity, cytopathic effect in CEM-SS cells by XTT dyeing, in the presence of 50% human blood serum; type: cell-based; conditions: Human immunodeficiency virus 1, IIIB, in the presence of 50% human blood serums, read-out: IC50 value in an anti-virus test
Description: The anti-HIV activity of the compounds synthesized Examples 1-15 and Reference Examples 1-4 was measured according to the method reported by O. S. Weislow et al. (J. Natl. Cancer Inst. 81, 577-586, 1989) using CEM-SS cells as host cells and HIV virus (HIV-1 IIIB strain) (see T. Mimoto et al., J. Med. Chem., 42, 1789-1802, 1999, etc.).
Specifically, the compounds synthesized Examples 1-15 and Reference Examples 1-5 in various concentrations were added to a culture medium on 96-well microtiter plates. Human blood serum was added to a final concentration of 50%, then HIV infected CEM-SS cells was added, followed by incubation in a CO2 atmosphere at 37°C for 6 days. The cytopathic effect induced by HIV-1 IIIB was measured by tetrazolium dye XTT dyeing method to evaluate the 50% inhibitory concentration (IC50).

Compound	fraction unbound at 18 h, 1 µM (in vitro)	IC50 [1] [ng/mL]
Cc1ccccc1CNC(=O)[C@H]1N(C(=O)[C@@H](O)[C@H](Cc2ccccc2)NC(=O)c2cccc(O)c2C)CSC1(C)C [Reference Example 1, reference compound]	0.013	–
COc1ccc(C[C@H](NC(=O)c2cccc(O)c2C)[C@H](O)C(=O)N2CSC(C)(C)[C@H]2C(=O)NCc2ccccc2C)cc1 [Example 1, (R)-N-(2-methylbenzyl)-3-[(2S,3S)-2-hydroxy-3-(3-hydroxy-2-methylbenzoyl)amino-4-(4-methoxyphenyl)butanoyl]-5,5-dimethyl-1,3-thiazolidine-4-carboxamide]	0.029	6
